Data taken from ChEMBL document CHEMBL4725402, “Discovery of thiapyran-pyrimidine derivatives as potential EGFR inhibitors” (Bioorg Med Chem, 2020).
pIC50: −log10 of the molar value.

Key:
A549 = test: Antiproliferation activity against human A549 cells assessed as reduction in cell viability measured after 72 hrs by MTT assay; assay type: functional, cell-based; details: A549, 72 h
HeLa = test: Antiproliferation activity against human HeLa cells assessed as reduction in cell viability measured after 72 hrs by MTT assay; assay type: functional, cell-based
MCF7 = test: Antiproliferation activity against human MCF7 cells assessed as reduction in cell viability measured after 72 hrs by MTT assay; assay type: functional, cell-based; details: MCF7, 72 h
L02 = test: Cytotoxicity against human L02 cells assessed as reduction in cell viability measured after 72 hrs by MTT assay; assay type: cell-based; details: L02, 72 h
[1] = Selectivity index, ratio of IC50 for human L02 cells to IC50 for human A549 cells assessed as reduction in cell viability measured after 72 hrs by MTT assay; assay type: toxicity; details: L02 cells versus A549 cells, read-out: Ratio IC50
NCI-H1975 = test: Antiproliferation activity against human NCI-H1975 cells harboring EGFR T790M/L858R mutation assessed as reduction in cell viability measured after 72 hrs by MTT assay; assay type: functional, cell-based; details: NCI-H1975, 72 h
[2] = target: Epidermal growth factor receptor (Homo sapiens, UniProt P00533); test: Inhibition of wild type EGFR (unknown origin) using FAM-labelled peptide as substrate incubated for 10 mins in presence of ATP by Kinase Glo luminescence assay
Chain of Epidermal growth factor receptor (Homo sapiens, UniProt P00533) (P00533 whole entry): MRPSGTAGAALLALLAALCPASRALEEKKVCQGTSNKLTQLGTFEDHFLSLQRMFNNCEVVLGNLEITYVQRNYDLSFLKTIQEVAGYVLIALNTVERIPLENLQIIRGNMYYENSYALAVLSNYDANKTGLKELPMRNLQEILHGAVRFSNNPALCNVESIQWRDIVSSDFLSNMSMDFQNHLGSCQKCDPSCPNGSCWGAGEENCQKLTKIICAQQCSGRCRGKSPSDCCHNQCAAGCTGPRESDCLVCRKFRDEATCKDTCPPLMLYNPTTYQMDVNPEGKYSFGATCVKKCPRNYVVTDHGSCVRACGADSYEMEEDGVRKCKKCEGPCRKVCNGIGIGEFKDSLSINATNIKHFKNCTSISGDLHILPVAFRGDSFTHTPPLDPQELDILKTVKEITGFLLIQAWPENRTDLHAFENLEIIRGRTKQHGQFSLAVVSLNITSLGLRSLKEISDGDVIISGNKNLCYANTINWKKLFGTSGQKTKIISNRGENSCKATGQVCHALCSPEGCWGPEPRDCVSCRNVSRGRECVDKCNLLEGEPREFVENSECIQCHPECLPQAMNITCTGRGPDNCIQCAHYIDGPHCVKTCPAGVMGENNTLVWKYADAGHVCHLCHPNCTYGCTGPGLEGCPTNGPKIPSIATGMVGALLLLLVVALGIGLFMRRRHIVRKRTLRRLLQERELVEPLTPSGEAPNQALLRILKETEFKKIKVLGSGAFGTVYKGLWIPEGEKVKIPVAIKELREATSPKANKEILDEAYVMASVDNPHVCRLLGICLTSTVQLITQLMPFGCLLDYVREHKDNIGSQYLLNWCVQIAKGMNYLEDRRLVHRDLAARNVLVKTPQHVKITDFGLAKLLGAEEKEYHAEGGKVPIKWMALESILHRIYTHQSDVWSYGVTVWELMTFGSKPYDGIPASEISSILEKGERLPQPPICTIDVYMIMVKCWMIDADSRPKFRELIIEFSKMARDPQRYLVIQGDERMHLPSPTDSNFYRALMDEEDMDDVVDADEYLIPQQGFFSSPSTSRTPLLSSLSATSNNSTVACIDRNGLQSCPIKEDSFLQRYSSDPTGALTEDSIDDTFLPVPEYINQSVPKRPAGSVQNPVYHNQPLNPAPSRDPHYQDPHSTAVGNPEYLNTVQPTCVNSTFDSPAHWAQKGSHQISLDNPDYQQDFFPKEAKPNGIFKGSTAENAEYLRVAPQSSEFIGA

[3] = target: Epidermal growth factor receptor (Homo sapiens, UniProt P00533, T790M); test: Inhibition of EGFR T790M mutant (unknown origin) using FAM-labelled peptide as substrate incubated for 10 mins fin presence of ATP by Kinase Glo luminescence assay
Chain of Epidermal growth factor receptor (Homo sapiens, UniProt P00533, T790M) (P00533 25-1210 T790M limits assumed): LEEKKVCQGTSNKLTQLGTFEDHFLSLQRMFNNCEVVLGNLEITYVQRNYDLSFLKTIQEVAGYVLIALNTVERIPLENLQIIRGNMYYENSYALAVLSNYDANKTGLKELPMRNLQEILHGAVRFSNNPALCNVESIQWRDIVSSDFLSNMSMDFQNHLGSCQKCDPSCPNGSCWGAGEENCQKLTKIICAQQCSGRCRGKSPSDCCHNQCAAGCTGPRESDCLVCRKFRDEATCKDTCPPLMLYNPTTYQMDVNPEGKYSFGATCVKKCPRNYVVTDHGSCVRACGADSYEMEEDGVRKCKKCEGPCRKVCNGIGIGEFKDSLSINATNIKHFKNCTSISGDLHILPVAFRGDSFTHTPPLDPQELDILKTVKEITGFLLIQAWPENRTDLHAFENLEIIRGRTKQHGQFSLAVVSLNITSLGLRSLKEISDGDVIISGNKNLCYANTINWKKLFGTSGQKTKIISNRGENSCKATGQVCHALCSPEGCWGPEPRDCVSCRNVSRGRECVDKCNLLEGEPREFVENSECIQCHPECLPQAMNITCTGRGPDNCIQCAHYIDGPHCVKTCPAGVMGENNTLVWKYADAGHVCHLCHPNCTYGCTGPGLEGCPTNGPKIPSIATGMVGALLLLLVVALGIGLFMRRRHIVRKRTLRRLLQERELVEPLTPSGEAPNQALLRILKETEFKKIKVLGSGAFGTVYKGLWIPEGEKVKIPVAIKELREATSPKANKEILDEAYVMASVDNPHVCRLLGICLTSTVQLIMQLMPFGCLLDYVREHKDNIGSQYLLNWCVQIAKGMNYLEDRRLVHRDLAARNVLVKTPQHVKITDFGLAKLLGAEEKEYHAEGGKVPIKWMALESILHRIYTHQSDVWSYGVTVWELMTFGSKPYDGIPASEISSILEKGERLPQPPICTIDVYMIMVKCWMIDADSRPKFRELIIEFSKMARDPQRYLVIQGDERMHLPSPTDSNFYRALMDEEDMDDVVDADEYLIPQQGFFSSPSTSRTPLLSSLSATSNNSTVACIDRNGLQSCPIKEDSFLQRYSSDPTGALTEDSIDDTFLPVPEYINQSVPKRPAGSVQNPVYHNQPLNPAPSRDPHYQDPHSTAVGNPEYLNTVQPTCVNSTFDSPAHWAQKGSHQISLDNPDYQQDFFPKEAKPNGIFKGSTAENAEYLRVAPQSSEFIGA

Homo sapiens = species: Homo sapiens; test: Inhibition of PI3K (unknown origin) at 1 uM relative to control
[4] = target: Serine/threonine-protein kinase mTOR (Homo sapiens) (UniProt P42345); test: Inhibition of mTOR (unknown origin) at 1 uM relative to control
[5] = target: Hepatocyte growth factor receptor (Homo sapiens) (UniProt P08581); test: Inhibition of C-MET (unknown origin) at 1 uM relative to control
[6] = target: Epidermal growth factor receptor (Homo sapiens, UniProt P00533, L858R/T790M); test: Inhibition of EGFR T790M/L858R mutant (unknown origin) using FAM-labelled peptide as substrate incubated for 10 mins in presence of ATP by Kinase Glo luminescence assay
Chain of Epidermal growth factor receptor (Homo sapiens, UniProt P00533, L858R/T790M) (P00533 25-1210 T790M/L858R limits assumed): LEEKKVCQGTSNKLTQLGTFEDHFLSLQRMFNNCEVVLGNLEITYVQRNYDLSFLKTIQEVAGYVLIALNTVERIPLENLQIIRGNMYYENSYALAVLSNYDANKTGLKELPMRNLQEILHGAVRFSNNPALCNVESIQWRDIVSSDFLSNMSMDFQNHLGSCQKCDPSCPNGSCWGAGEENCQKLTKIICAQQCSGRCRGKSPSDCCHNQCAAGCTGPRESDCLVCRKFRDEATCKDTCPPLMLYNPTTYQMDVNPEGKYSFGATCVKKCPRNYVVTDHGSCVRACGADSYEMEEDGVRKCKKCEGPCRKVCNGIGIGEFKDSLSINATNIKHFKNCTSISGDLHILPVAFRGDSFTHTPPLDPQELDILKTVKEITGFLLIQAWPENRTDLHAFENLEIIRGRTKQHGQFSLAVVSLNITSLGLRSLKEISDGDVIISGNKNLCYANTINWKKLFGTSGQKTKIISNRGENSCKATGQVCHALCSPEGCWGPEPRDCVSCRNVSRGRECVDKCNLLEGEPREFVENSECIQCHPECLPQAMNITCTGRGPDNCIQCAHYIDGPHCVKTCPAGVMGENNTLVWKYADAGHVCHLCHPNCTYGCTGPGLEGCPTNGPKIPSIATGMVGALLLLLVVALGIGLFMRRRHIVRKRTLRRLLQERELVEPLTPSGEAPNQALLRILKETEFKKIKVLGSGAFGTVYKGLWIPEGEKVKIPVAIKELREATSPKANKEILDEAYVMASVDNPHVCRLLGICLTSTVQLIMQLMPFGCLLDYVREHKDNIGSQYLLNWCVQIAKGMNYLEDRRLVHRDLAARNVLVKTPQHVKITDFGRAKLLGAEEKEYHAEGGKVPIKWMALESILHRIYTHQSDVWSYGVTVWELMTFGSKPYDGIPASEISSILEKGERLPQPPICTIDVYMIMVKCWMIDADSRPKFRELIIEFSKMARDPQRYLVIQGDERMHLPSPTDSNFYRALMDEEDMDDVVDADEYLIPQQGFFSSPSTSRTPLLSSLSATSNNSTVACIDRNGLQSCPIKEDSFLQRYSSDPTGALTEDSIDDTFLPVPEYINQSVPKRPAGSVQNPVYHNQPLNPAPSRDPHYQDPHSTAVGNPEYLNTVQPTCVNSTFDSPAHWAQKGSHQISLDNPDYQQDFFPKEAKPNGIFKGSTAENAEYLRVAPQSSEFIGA

[7] = target: Vascular endothelial growth factor receptor 2 (Homo sapiens) (UniProt P35968); test: Inhibition of KDR (unknown origin) at 1 uM relative to control
Chain of Vascular endothelial growth factor receptor 2 (Homo sapiens) (P35968 whole entry): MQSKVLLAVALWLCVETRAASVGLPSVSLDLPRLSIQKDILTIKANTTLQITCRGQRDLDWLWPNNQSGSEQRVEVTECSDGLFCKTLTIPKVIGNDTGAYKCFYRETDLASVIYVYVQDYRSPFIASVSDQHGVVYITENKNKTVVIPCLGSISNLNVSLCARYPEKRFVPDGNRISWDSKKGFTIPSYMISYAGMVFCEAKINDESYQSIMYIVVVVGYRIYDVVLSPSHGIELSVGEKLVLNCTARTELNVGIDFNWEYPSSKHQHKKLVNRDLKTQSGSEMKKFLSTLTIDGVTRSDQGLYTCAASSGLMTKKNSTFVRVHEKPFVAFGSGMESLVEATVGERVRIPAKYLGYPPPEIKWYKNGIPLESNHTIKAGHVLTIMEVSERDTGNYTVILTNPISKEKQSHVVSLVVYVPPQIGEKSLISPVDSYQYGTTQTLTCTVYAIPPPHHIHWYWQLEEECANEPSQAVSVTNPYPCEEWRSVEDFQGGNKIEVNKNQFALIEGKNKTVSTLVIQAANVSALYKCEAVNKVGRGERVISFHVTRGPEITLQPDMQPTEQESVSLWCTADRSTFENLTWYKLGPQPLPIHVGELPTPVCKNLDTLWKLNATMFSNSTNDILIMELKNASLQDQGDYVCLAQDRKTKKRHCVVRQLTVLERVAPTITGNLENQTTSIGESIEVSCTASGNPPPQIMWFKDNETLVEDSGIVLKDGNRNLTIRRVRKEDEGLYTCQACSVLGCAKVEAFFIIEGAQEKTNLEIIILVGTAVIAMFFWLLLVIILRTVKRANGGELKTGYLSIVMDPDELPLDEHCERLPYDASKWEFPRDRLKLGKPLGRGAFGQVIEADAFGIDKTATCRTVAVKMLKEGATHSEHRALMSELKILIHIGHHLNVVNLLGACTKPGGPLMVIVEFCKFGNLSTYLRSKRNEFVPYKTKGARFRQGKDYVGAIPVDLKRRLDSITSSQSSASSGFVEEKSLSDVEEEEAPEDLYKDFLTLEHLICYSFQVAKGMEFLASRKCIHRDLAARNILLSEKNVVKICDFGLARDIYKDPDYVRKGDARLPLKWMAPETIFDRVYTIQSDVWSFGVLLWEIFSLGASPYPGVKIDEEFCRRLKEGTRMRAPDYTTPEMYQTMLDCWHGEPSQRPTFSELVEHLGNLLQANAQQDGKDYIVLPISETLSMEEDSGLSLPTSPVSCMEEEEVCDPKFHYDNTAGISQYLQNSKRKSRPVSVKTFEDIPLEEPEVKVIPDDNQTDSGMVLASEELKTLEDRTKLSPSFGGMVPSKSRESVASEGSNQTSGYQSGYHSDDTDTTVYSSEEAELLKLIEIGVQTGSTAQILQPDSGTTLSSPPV

SMILES	pIC50 (A549)	pIC50 (HeLa)	pIC50 (MCF7)	pIC50 (L02)	selectivity ratio at 72 h [1]	pIC50 (NCI-H1975)	pIC50 [2]	pIC50 [3]	inhibition (Homo sapiens) [%]	inhibition [4] [%]	inhibition [5] [%]	pIC50 [6]	inhibition [7] [%]
C=CC(=O)Nc1cccc(Oc2nc(Nc3ccn(C)n3)nc3c2CSCC3)c1	4.73	4.59	< 4.30	< 4.30	> 2.7								
CCC/C=C/C(=O)Nc1cccc(Oc2nc(Nc3ccc(OC)cc3)nc3c2CSCC3)c1	4.93	4.89	< 4.30	< 4.30	> 4.21	4.72							
CC/C=C/C(=O)Nc1cccc(Oc2nc(Nc3cccc(OC)c3)nc3c2CSCC3)c1	4.76	4.56	4.62	< 4.30	> 2.9	4.97							
C=C(F)C(=O)Nc1cccc(Oc2nc(Nc3ccn(C)n3)nc3c2CSCC3)c1	< 4.30	< 4.30	< 4.30	4.32	< 0.96	4.44							
C/C=C/C(=O)Nc1cccc(Oc2nc(Nc3cccc(OC)c3)nc3c2CSCC3)c1	4.67	4.86	4.63	< 4.30	> 2.37	4.90							
COc1ccc(Nc2nc3c(c(Oc4cccc(NC(=O)C=C(C)C)c4)n2)CSCC3)cn1	4.77	4.54	4.65	< 4.30	> 2.97								
C/C=C/C(=O)Nc1cccc(Oc2nc(Nc3ccc(OC)nc3)nc3c2CSCC3)c1	5.09	4.78	4.68	< 4.30	> 6.22	4.86	< 6.00	< 6.00					
C/C=C/C(=O)Nc1cccc(Oc2nc(Nc3cccc(C#N)c3)nc3c2CSCC3)c1	4.76	4.89	4.67	< 4.30	> 2.91	4.55							
CCC/C=C/C(=O)Nc1cccc(Oc2nc(Nc3ccc(OC)nc3)nc3c2CSCC3)c1	4.97	4.81	4.57	< 4.30	> 4.62	4.75							
COc1ccc(Nc2nc3c(c(Oc4cccc(NC(=O)/C=C/C(C)C)c4)n2)CSCC3)cc1	4.59	4.64	< 4.30	< 4.30	> 1.93								
CC/C=C/C(=O)Nc1cccc(Oc2nc(Nc3ccc(OC)cc3)nc3c2CSCC3)c1	4.70	4.56	4.50	< 4.30	> 2.49	4.76							
C=CC(=O)Nc1cccc(Oc2nc(Nc3cccc(OC)c3)nc3c2CSCC3)c1	5.00	4.54	< 4.30	4.31		5.02							
CC(C)/C=C/C(=O)Nc1cccc(Oc2nc(Nc3cccc(C#N)c3)nc3c2CSCC3)c1	4.44	4.64	4.53	< 4.30	> 1.39								
C=C(C)C(=O)Nc1cccc(Oc2nc(Nc3ccn(C)n3)nc3c2CSCC3)c1	4.33	< 4.30	< 4.30	< 4.30	> 1.06								
COc1ccc(Nc2nc3c(c(Oc4cccc(NC(=O)C=C(C)C)c4)n2)CSCC3)cc1	4.57	4.72	< 4.30	< 4.30	> 1.86								
C/C=C/C(=O)Nc1cccc(Oc2nc(Nc3ccc(OC)cc3)nc3c2CSCC3)c1	4.65	< 4.30	4.61	< 4.30	> 2.25								
CC/C=C/C(=O)Nc1cccc(Oc2nc(Nc3ccn(C)n3)nc3c2CSCC3)c1	4.43	< 4.30	< 4.30	< 4.30	> 1.36								

SMILES	pIC50 (A549)	pIC50 (HeLa)	pIC50 (MCF7)	pIC50 (L02)	selectivity ratio at 72 h [1]	pIC50 (NCI-H1975)	pIC50 [2]	pIC50 [3]	inhibition (Homo sapiens) [%]	inhibition [4] [%]	inhibition [5] [%]	pIC50 [6]	inhibition [7] [%]
COc1ccc(Nc2nc3c(c(Oc4cccc(NC(=O)/C=C/C(C)C)c4)n2)CSCC3)cn1	4.62	4.56	4.43	< 4.30	> 2.06								
CC(C)=CC(=O)Nc1cccc(Oc2nc(Nc3ccn(C)n3)nc3c2CSCC3)c1	4.35	< 4.30	< 4.30	< 4.30	> 1.13								
CCC/C=C/C(=O)Nc1cccc(Oc2nc(Nc3cccc(OC)c3)nc3c2CSCC3)c1	4.93	4.47	4.49	< 4.30	> 4.23	4.92							
C=C(F)C(=O)Nc1cccc(Oc2nc(Nc3cccc(OC)c3)nc3c2CSCC3)c1	4.53	4.35	< 4.30	4.38	1.39	4.58							
CC/C=C/C(=O)Nc1cccc(Oc2nc(Nc3cccc(C#N)c3)nc3c2CSCC3)c1	5.00	4.50	4.80	< 4.30	> 4.95	4.76							
CCC/C=C/C(=O)Nc1cccc(Oc2nc(Nc3cccc(C#N)c3)nc3c2CSCC3)c1	5.24	5.14	4.82	< 4.30	> 8.64	4.97	< 6.00	< 6.00	62.2	10	3.6	< 6.00	
C=CC(=O)Nc1cccc(Oc2nc(Nc3ccc(OC)nc3)nc3c2CSCC3)c1	4.84	4.58	4.76	< 4.30	> 3.43	4.86							
C/C=C/C(=O)Nc1cccc(Oc2nc(Nc3ccn(C)n3)nc3c2CSCC3)c1	< 4.30	< 4.30	4.40	< 4.30		4.45							
CCC/C=C/C(=O)Nc1cccc(Oc2nc(Nc3ccn(C)n3)nc3c2CSCC3)c1	5.09	4.77	4.65	< 4.30	> 6.1	4.87	< 6.00	< 6.00					
C=CC(=O)Nc1cccc(Oc2nc(Nc3cccc(C#N)c3)nc3c2CSCC3)c1	5.16	4.46	4.66	< 4.30	> 7.29	5.34	< 6.00	< 6.00	44.3		2.4	< 6.00	-0.9
CC(C)/C=C/C(=O)Nc1cccc(Oc2nc(Nc3ccn(C)n3)nc3c2CSCC3)c1	4.48	4.40	< 4.30	< 4.30	> 1.49								
COc1cccc(Nc2nc3c(c(Oc4cccc(NC(=O)/C=C/C(C)C)c4)n2)CSCC3)c1	4.60	< 4.30	4.66	< 4.30	> 1.98	4.60							
CC(C)=CC(=O)Nc1cccc(Oc2nc(Nc3cccc(C#N)c3)nc3c2CSCC3)c1	4.43	4.53	< 4.30	< 4.30	> 1.36								
Oc1cccc(-c2nc(N3CCOCC3)c3oc4ncccc4c3n2)c1									99.8				2.4
CC/C=C/C(=O)Nc1cccc(Oc2nc(Nc3ccc(OC)nc3)nc3c2CSCC3)c1	4.88	4.51	4.50	< 4.30	> 3.81	4.88							
COc1cccc(Nc2nc3c(c(Oc4cccc(NC(=O)C=C(C)C)c4)n2)CSCC3)c1	4.70	4.72	< 4.30	< 4.30	> 2.52	4.66							
